From the supplement of paper PMC10307832

These cell lines were tested with CC1=C(N=C(N=C1N)[C@H](CC(=O)N)NC[C@@H](C(=O)N)N)C(=O)N[C@@H]([C@H](C2=CN=CN2)OC3C(C(C(C(O3)CO)O)O)OC4C(C(C(C(O4)CO)O)OC(=O)N)O)C(=O)N[C@H](C)[C@H]([C@H](C)C(=O)N[C@@H]([C@@H](C)O)C(=O)NCCC5=NC(=CS5)C6=NC(=CS6)C(=O)NCCC[S+](C)C)O [Bleomycin] + Cc1cc(Nc2cc(N3CCN(C)CC3)nc(Sc3ccc(NC(=O)C4CC4)cc3)n2)n[nH]1 [Tozasertib] (partner 0.1 µM) (assay: relative viability (nuclei count vs DMSO), 5 days (fraction); higher = more cells survive). Settings: first compound 0.3162 µM; main component drawn.
Procedure, shortened: (§1)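 One day after seeding in 1536-well plates, lung cancer cell lines were dosed by pin tool. Dosing was either single-drug or a fixed anchor-drug dose plus five library-drug doses (not always all listed) in √10 steps. After 5 days, nuclei were stained in one fix-and-stain step and counted on 4× images, and relative viability is the nuclei count of treated wells over that of vehicle wells, given as the median of duplicate plates.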

Cell Line	relative viability
NCI-H2023	0.116
SK-LU-1	0.235
NCI-H661	0.374

Same assay, conditions: first compound 1 µM; main component drawn

Cell Line	relative viability
NCI-H522	0.346
NCI-H1623	0.32
NCI-H838	0.139
NCI-H1650	0.178
NCI-H1993	0.539
NCI-H2087	0.119
PC-14	0.05
LCLC-103H	0.234
NCI-H596	0.253
NCI-H2228	0.137
EMC-BAC-2	0.178
NCI-H2085	0.428
HCC-366	0.0319
NCI-H1666	0.344
NCI-H647	0.0467
NCI-H2342	0.445
SK-MES-1	0.134
COR-L23	0.104
COR-L 105	0.279
ChaGo-K-1	0.192
HCC-44	0.137
SW 900	0.174
NCI-H1648	0.379
NCI-H2009	0.351
NCI-H520	0.358
SW 1573	0.161
NCI-H2023	0.109
SK-LU-1	0.215
NCI-H661	0.35

What follows are cell lines tested with CC1=C(N=C(N=C1N)[C@H](CC(=O)N)NC[C@@H](C(=O)N)N)C(=O)N[C@@H]([C@H](C2=CN=CN2)OC3C(C(C(C(O3)CO)O)O)OC4C(C(C(C(O4)CO)O)OC(=O)N)O)C(=O)N[C@H](C)[C@H]([C@H](C)C(=O)N[C@@H]([C@@H](C)O)C(=O)NCCC5=NC(=CS5)C6=NC(=CS6)C(=O)NCCC[S+](C)C)O [Bleomycin] + NC(=O)Nc1cc(-c2cccc(F)c2)sc1C(=O)N[C@H]1CCCNC1 [AZD7762] (partner 0.2 µM) in the same assay as above. Settings: first compound 0.01 µM; main component drawn.
Procedure, shortened: as §1

Cell Line	relative viability
NCI-H522	0.76
NCI-H838	0.701
NCI-H1703	0.131
NCI-H1993	0.723
NCI-H2087	0.981
PC-14	0.254
LCLC-103H	0.7
NCI-H596	1.06
EMC-BAC-2	0.96
NCI-H2085	0.896
HCC-366	0.305
NCI-H1666	0.972
NCI-H647	0.166
NCI-H2342	0.5
ChaGo-K-1	0.785
HCC-44	0.955
SW 900	0.525
NCI-H1648	0.623
NCI-H1792	0.615

Same assay, conditions: first compound 0.03162 µM; main component drawn

Cell Line	relative viability
NCI-H522	0.796
NCI-H838	0.68
NCI-H1703	0.139
NCI-H1993	0.822
NCI-H2087	1.2
PC-14	0.347
LCLC-103H	0.8
NCI-H596	1.03
EMC-BAC-2	1.05
NCI-H2085	0.967
HCC-366	0.231
NCI-H1666	0.695
NCI-H647	0.284
NCI-H2342	0.611
ChaGo-K-1	0.824
HCC-44	1
SW 900	0.591
NCI-H1648	0.716
NCI-H1792	0.635

Same assay, conditions: first compound 0.1 µM; main component drawn

Cell Line	relative viability
NCI-H522	0.65
NCI-H838	0.661
NCI-H1703	0.128
NCI-H1993	0.739
NCI-H2087	1.31
PC-14	0.187
LCLC-103H	0.792
NCI-H596	0.891
EMC-BAC-2	1.08
NCI-H2085	0.828
HCC-366	0.156
NCI-H1666	0.57
NCI-H647	0.112
NCI-H2342	0.495
ChaGo-K-1	0.808
HCC-44	0.965
SW 900	0.392
NCI-H1648	0.512
NCI-H1792	0.716

Same assay, conditions: first compound 0.3162 µM; main component drawn

Cell Line	relative viability
NCI-H522	0.519
NCI-H838	0.594
NCI-H1703	0.122
NCI-H1993	0.491
NCI-H2087	0.976
PC-14	0.0884
LCLC-103H	0.666
NCI-H596	0.349
EMC-BAC-2	0.607
NCI-H2085	0.301
HCC-366	0.065
NCI-H1666	0.512
NCI-H647	0.0842
NCI-H2342	0.589
ChaGo-K-1	0.692
HCC-44	0.646
SW 900	0.264
NCI-H1648	0.373
NCI-H1792	0.253

Same assay, conditions: first compound 1 µM; main component drawn

Cell Line	relative viability
NCI-H522	0.468
NCI-H838	0.649
NCI-H1703	0.114
NCI-H1993	0.517
NCI-H2087	0.512
PC-14	0.0848
LCLC-103H	0.418
NCI-H596	0.398
EMC-BAC-2	0.415
NCI-H2085	0.464
HCC-366	0.0338
NCI-H1666	0.486
NCI-H647	0.0575
NCI-H2342	0.42
ChaGo-K-1	0.504
HCC-44	0.573
SW 900	0.24
NCI-H1648	0.375
NCI-H1792	0.141

These cell lines were tested with COc1cc([C@@H]2c3cc4c(cc3[C@@H](O[C@@H]3O[C@@H]5CO[C@@H](C)O[C@H]5[C@H](O)[C@H]3O)[C@H]3COC(=O)[C@H]23)OCO4)cc(OC)c1O [Etoposide] + Cc1nc(NC(=O)N2CCC[C@H]2C(N)=O)sc1-c1ccnc(C(C)(C)C(F)(F)F)c1 [Alpelisib] (partner 2 µM) in the same assay as above. Settings: first compound 0.01 µM.
Procedure, shortened: as §1

Cell Line	relative viability
NCI-H838	0.951
EBC-1	0.841
NCI-H1703	0.406
NCI-H1993	0.741
PC-14	0.927
LCLC-103H	1.02
NCI-H596	0.383
NCI-H2228	0.864
EMC-BAC-2	0.711
NCI-H2085	0.882
